Data reported in PMC7180617, “Biological Evaluation of 3-Benzylidenechromanones and Their Spiropyrazolines-Based Analogues” (Molecules, 2020).
Several values for one entry are separate records, joined by “and”; a condition that tells them apart may be missing. Identical values can stand only once.

How the values were obtained:
HL-60 cells = assay: Cell cycle analysis by flow cytometry (propidium iodide); type: cell-based, human; details: for cell cycle, G1, mean / cell cycle, G2/M, mean / cell cycle, S, mean: mean of n=2; for cell cycle distribution, G1 / cell cycle distribution, G2 / cell cycle distribution, G2/M: HL-60, 20 h, mean ± SD, n = 2
In short: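 HL-60 (CCL 240) cells were grown in RPMI 1640 with 20% FBS, fixed and stored at −20 °C for 2–3 days. RNase A was applied at 37 °C for 10 min, then propidium iodide for 30 min at RT in the dark. Cell-cycle distribution was determined by flow cytometry from 10,000 gated cells.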

erythrocytes = assay: Red blood cell morphology (phase-contrast microscopy); type: cell-based; details: 2% erythrocyte suspension, 37 °C, 1 h, phase contrast 400×
Method: Studies on erythrocyte morphology complement the erythrotoxicity studies because they provide information on potential immediate interactions of the tested compounds with the erythrocyte lipid bilayer, and the possibility of creating pathological forms of erythrocytes, which are not able to carry oxygen. The effects of the synthesized compounds, and the two reference compounds chromanone and flavanone, on the morphology of erythrocytes is shown in Figure 6. Briefly, 2% RBC suspension was incubated with 0.9% NaCl (control samples) or tested compounds at various concentrations corresponding to their activity towards cancer cell lines.
A 2% erythrocyte suspension was incubated at 37 °C for one hour with various concentrations of synthesized compounds. The morphology of the RBCs was examined by means of a phase contrast Opta-Tech inverted microscope, at 400× magnification, equipped with software (OptaView 7) for image analysis.

[1] = Figure S3, HL-60, 0.5 × IC50 (µM: quercetin 29, 1 1.5, 7 18, 10 4.7, 11 4.5, 12 6)
[2] = Figure S3, HL-60, 0.5 × IC50, each of two repetitions
[3] = Figure S3, HL-60, 1 × IC50 (µM: quercetin 58, 1 3, 7 35, 10 9.4, 11 9, 12 12)
[4] = Figure S3, HL-60, 1 × IC50, each of two repetitions
[5] = 0.5 × IC50 (µM: quercetin 29, 2 1.5, 7 18, 12 6, 11 4.5, 10 4.7)
[6] = 1 × IC50 (µM: quercetin 58, 2 3, 7 35, 12 12, 11 9, 10 9.4)

**Q.** For `O=C1/C(=C/c2ccccc2)COc2ccccc21` [Compound 7, (E)-3-benzylidene-chroman-4-one], which “cell cycle, G1, mean” value (HL-60 cells; [1]) is on record?
**A.** 57,71%

**Q.** And the “cell cycle, G2/M, mean” value (HL-60 cells; [1])?
**A.** 20,82%

**Q.** And the “cell cycle, S, mean” value (HL-60 cells; [1])?
**A.** 21,48%

**Q.** What about the “cell cycle, G1, single repetitions” value (HL-60 cells; [2]) of the same compound?
**A.** 52,64% and 62,77%

**Q.** And the “cell cycle, G2/M, single repetitions” value (HL-60 cells; [2])?
**A.** 18,44% and 23,20%

**Q.** And the “cell cycle, S, single repetitions” value (HL-60 cells; [2])?
**A.** 18,79% and 24,16%

**Q.** What about the “cell cycle, G1, mean” value (HL-60 cells; Figure S3, HL-60, 1 × IC50 (µM in parenthesis: quercetin 58, 1 3, 7 35, 10 9.4, 11 9, 12 12)) of the same compound?
**A.** 50,37%

**Q.** What about the “cell cycle, G2/M, mean” value (HL-60 cells; [3]) of the same compound?
**A.** 26,09%

**Q.** And the “cell cycle, S, mean” value (HL-60 cells; [3])?
**A.** 23,55%

**Q.** What about the “cell cycle, G1, single repetitions” value (HL-60 cells; [4]) of the same compound?
**A.** 51,06% and 49,68%

**Q.** And the “cell cycle, G2/M, single repetitions” value (HL-60 cells; [4])?
**A.** 26,04% and 26,13%

**Q.** And the “cell cycle, S, single repetitions” value (HL-60 cells; [4])?
**A.** 22,89% and 24,20%

**Q.** What about the “cell cycle distribution, G1” value (HL-60 cells; [5]) of the same compound?
**A.** 57.7 ± 7.2%

**Q.** And the “cell cycle distribution, G2” value (HL-60 cells; [5])?
**A.** 21.5 ± 3.8%

**Q.** And the “cell cycle distribution, G2/M” value (HL-60 cells; [5])?
**A.** 20.8 ± 3.4%

**Q.** What about the “cell cycle distribution, G1” value (HL-60 cells; [6]) of the same compound?
**A.** 50.4 ± 1.0%

**Q.** And the “cell cycle distribution, G2” value (HL-60 cells; [6])?
**A.** 23.5 ± 0.9%

**Q.** What about the “cell cycle distribution, G2/M” value (HL-60 cells; [6]) of the same compound?
**A.** 26.1 ± 0.1%

**Q.** And the “cells arrested in G2/M phase” value (HL-60 cells; HL-60, concentrations of IC50 and 0.5 × IC50)?
**A.** 20–26%

**Q.** And the “erythrocyte morphology (in words)” value (erythrocytes)?
**A.** primarily led to echinocytosis, however single anisocytes could also be detected
